Measured values from US8017607B2, “N-substituted-pyrrolidines as inhibitors of MDM2-P-53 interactions” (Hoffmann-La Roche Inc., priority 2009, dated 2011).

These compounds were tested against interaction between p53 and MDM2 proteins (recombinant GST-tagged MDM2, biotinylated p53 peptide) (Homo sapiens, UniProt Q00987) (assay: HTRF assay of inhibition of the p53-MDM2 interaction). Details: bsa: 0.02%.
Chain of interaction between p53 and MDM2 proteins (recombinant GST-tagged MDM2, biotinylated p53 peptide) (Q00987 whole entry): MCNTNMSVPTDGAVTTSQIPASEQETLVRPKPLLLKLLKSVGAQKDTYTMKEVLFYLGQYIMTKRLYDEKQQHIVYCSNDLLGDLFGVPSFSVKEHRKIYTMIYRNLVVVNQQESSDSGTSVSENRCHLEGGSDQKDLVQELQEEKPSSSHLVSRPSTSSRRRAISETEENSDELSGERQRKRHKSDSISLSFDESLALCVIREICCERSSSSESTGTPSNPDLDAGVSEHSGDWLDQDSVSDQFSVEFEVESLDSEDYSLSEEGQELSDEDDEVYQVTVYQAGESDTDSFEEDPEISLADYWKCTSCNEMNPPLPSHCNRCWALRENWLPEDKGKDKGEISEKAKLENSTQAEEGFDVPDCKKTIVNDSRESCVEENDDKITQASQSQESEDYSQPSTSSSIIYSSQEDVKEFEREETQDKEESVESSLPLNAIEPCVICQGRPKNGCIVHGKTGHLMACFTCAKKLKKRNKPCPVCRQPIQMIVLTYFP
Format: binding
Protocol: The ability of the compounds to inhibit the interaction between p53 and MDM2 proteins was measured by an HTRF (homogeneous time-resolved fluorescence) assay in which recombinant GST-tagged MDM2 binds to a peptide that resembles the MDM2-interacting region of p53 (Lane et al.). Binding of GST-MDM2 protein and p53-peptide (biotinylated on its N-terminal end) is registered by the FRET (fluorescence resonance energy transfer) between Europium (Eu)-labeled anti-GST antibody and streptavidin-conjugated Allophycocyanin (APC).
[…] Add 10 uL diluted compounds (1:5 dilution in reaction buffer) to each well, mix by shaking. Add 20 uL biotinylated p53 peptide (180 nM working solution) in reaction buffer to each well and mix on shaker. Incubate at 37° C. for 1 h. Add 20 uL streptavidin-APC and Eu-anti-GST antibody mixture (6 nM Eu-anti-GST and 60 nM streptavidin-APC working solution) in TBS buffer with 0.2% BSA, shake at room temperature for 30 minutes and read using a TRF-capable plate reader at 665 and 615 nm (Victor 5, Perkin ElmerWallac). If not specified, the reagents were purchased from Sigma Chemical Co.
For `CC(C)(C)C[C@@H]1CN(C(=O)NCC[C@H](O)CO)[C@H](c2cccc(Cl)c2F)[C@@]1(C#N)c1ccc(Cl)cc1F` (mixture of isomers) [Example 4, rac-(2S,3S,4S)-2-(3-chloro-2-fluoro-phenyl)-3-(4-chloro-2-fluoro-phenyl)-3-cyano-4-(2,2-dimethyl-propyl)-pyrrolidine-1-carboxylic acid ((S)-3,4-dihydroxy-butyl)-amide], the IC50 was 0.269 µM. `CC(C)(C)C[C@@H]1CN(C(=O)c2ccc(C(=O)O)cc2)[C@H](c2cccc(Cl)c2F)[C@@]1(C#N)c1ccc(Cl)cc1F` (racemic) [Example 12, rac-4-[(2S,3S,4S)-2-(3-chloro-2-fluoro-phenyl)-3-(4-chloro-2-fluoro-phenyl)-3-cyano-4-(2,2-dimethyl-propyl)-pyrrolidine-1-carbonyl]-benzoic acid] showed an IC50 of 0.644 µM. `CC(C)(C)C[C@@H]1CN(C(=O)Nc2cccc(-c3nnn[nH]3)c2)[C@H](c2cccc(Cl)c2F)[C@@]1(C#N)c1ccc(Cl)cc1F` (racemic) [Example 16, rac-(2S,3S,4S)-2-(3-chloro-2-fluoro-phenyl)-3-(4-chloro-2-fluoro-phenyl)-3-cyano-4-(2,2-dimethyl-propyl)-pyrrolidine-1-carboxylic acid [3-(1H-tetrazol-5-yl)-phenyl]-amide] gave an IC50 of 3.23 µM. `CC(C)(C)C[C@@H]1CN(C(=O)Nc2ccncc2)[C@H](c2cccc(Cl)c2F)[C@@]1(C#N)c1ccc(Cl)cc1F` (racemic) [Example 48, rac-(2S,3S,4S)-2-(3-chloro-2-fluoro-phenyl)-3-(4-chloro-2-fluoro-phenyl)-3-cyano-4-(2,2-dimethyl-propyl)-pyrrolidine-1-carboxylic acid pyridin-4-ylamide] was tested, and the IC50 was 1.73 µM.
